Assay [1] deals with OPM-2 human multiple myeloma cell line. In words: Cell Viability Assay (OPM-2 10 FBS). Type of assay: cell-based. Particulars: OPM-2 cells, CellTiter-Glo. In outline: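 Plated at 3000 cells/well in 10% FBS complete medium, the cells received a serial compound dilution series and incubated 16 h at 37 °C with 5% CO2. CellTiter-Glo was then added; IC50 values were fitted with a logistic 4-parameter model.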

For assay [2], the target named is T1, Mcl-1/Bim interaction, recombinant human Mcl-1 (171-327) (Homo sapiens, UniProt Q07820).
T1 construct: made in house
T1 sequence (Q07820 171-327): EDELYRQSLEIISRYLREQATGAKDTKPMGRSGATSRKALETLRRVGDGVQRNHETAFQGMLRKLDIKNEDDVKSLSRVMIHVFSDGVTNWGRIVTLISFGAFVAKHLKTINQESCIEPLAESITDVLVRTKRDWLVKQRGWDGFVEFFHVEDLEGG
As to the kind of experiment: Cell free Mcl-1: Bim Affinity Assay (Mcl-1 HTRF). Type of assay: binding. In outline: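 Compounds were mixed with the protein and a biotinylated Bim peptide spanning human residues 51-76. Plates were left overnight, then TR-FRET signal was measured. A four-parameter sigmoidal model applied to duplicate competition data gave IC50.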

Where [3] appears, read: Homo sapiens, OPM-2, 16 h, 16 h.
Where [4] appears, read: cell free Mcl-1:Bim TR-FRET, recombinant human Mcl-1 (171-327).
Where [5] appears, read: TR-FRET, 0.1 nM Mcl-1 (171-327), 0.05 nM biotin-Bim (51-76).

pIC50: −log10 of the molar value.

With `C[C@@H]1[C@@H](C)C/C=C/[C@H](OCCO)[C@@H]2CC[C@H]2CN2C[C@@]3(CCCc4cc(Cl)ccc43)COc3ccc(cc32)C(=O)NS1(=O)=O` [Example 516, (1S,3′R,6′R,7′S,8′E,11′S,12′R)-6-chloro-7′-(2-hydroxyethoxy)-11′,12′-dimethyl-3,4-dihydro-2H,15′H-spiro[naphthalene-1,22′-[20]oxa[13]thia[1,14]diazatetracyclo[14.7.2.0^3,6.0^19,24]pentacosa[8,16,18,24]tetraen]-15′-one 13′,13′-dioxide], the pIC50 in assay [1] (setting [3]) is 7.14; in assay [2] (setting [4]), 9.57.
With `CO[C@H](C)C[C@@H]1[C@@H](C)C/C=C/[C@H](O)[C@@H]2CC[C@H]2CN2C[C@@]3(CCCc4cc(Cl)ccc43)COc3ccc(cc32)C(=O)NS1(=O)=O` (single isomer, unassigned) [Example 540], the pIC50 in assay [1] (16 h) was 7.03; in assay [2] (setting [4]), 9.63.
`C[C@H]1C/C=C/[C@H](OCC(=O)O)[C@@H]2CC[C@H]2CN2C[C@@]3(CCCc4cc(Cl)ccc43)COc3ccc(cc32)C(=O)NS(=O)(=O)[C@H]1C` [Example 739, (((1S,3′R,6′R,7′S,8′E,11′S,12′S)-6-chloro-11′,12′-dimethyl-13′,13′-dioxido-15′-oxo-3,4-dihydro-2H-spiro[naphthalene-1,22′-[20]oxa[13]thia [1,14]diazatetracyclo[14.7.2.0^3,6.0^19,24]pentacosa[8,16,18,24]tetraen]-7′-yl)oxy)acetic Acid]: the pIC50 in assay [1] (setting [3]) is 4.62; in assay [2] (setting [4]), 9.85.
For `COCCOCCO[C@H]1/C=C/C[C@H](C)[C@@H](C)S(=O)(=O)NC(=O)c2ccc3c(c2)N(C[C@@H]2CC[C@H]21)C[C@@]1(CCCc2cc(Cl)ccc21)CO3` [Example 377, (1S,3′R,6′R,7′S,8′E,11′S,12′R)-6-chloro-7′-(2-(2-methoxyethoxy)ethoxy)-11′,12′-dimethyl-3,4-dihydro-2H,15′H-spiro[naphthalene-1,22′-[20]oxa[13]thia[1,14]diazatetracyclo[14.7.2.0^3,6.0^19,24]pentacosa[8,16,18,24]tetraen]-15′-one 13′,13′-dioxide], the pIC50 in assay [1] (setting [3]) was 6.74; in assay [2] (setting [5]) it was 9.52.
Turning to `C[C@H](O)C[C@@H]1CC/C=C\[C@H](O)[C@@H]2CC[C@H]2CN2C[C@@]3(CCCc4cc(Cl)ccc43)COc3ccc(cc32)C(=O)NS1(=O)=O` (single isomer, unassigned) [Example 547], the negative-log IC50 (pIC50) was 5.65 in assay [1] (16 h) and 9.62 in assay [2] (setting [4]).
For the molecule `CC[C@H]1C/C=C/[C@H](O)[C@@H]2CC[C@H]2CN2C[C@@]3(CCCc4cc(Cl)ccc43)COc3ccc(cc32)C(=O)NS(=O)(=O)N1` (single isomer, unassigned) [Example 685], the pIC50 is 5.14 in assay [1] (16 h) and 8.58 in assay [2] (setting [4]).
With `COCC[C@@H]1C[C@@H](C)/C=C/[C@H](O)[C@@H]2CC[C@H]2CN2C[C@@]3(CCCc4cc(Cl)ccc43)COc3ccc(cc32)C(=O)NS1(=O)=O` (single isomer, unassigned) [Example 477], the pIC50 in assay [1] (16 h) is 6.54; in assay [2] (setting [4]), 9.51.
In the case of `CO[C@@H]1/C=C/CCCCS(=O)(=O)NC(=O)c2ccc3c(c2)N(C[C@@H]2CC[C@H]21)C[C@@]1(CCCc2cc(Cl)ccc21)CO3` [Example 229, (1S,3′R,6′R,7′R,8′E)-6-chloro-7′-methoxy-3,4-dihydro-2H,16′H-spiro[naphthalene-1,23′-[21]oxa[14]thia[1,15]diazatetracyclo[15.7.2.0^3,6.0^20,25]hexacosa[8,17,19,25]tetraen]-16′-one 14′,14′-dioxide], the pIC50 in assay [1] (setting [3]) is 5.77; in assay [2] (setting [5]), 8.79.
Take `Cc1nc(CN(Cc2noc(C)n2)[C@H]2/C=C/CC[C@@H](C)S(=O)(=O)NC(=O)c3ccc4c(c3)N(C[C@@H]3CC[C@H]32)C[C@@]2(CCCc3cc(Cl)ccc32)CO4)no1` [Example 602, (1S,3′R,6′R,7′S,8′E,12′R)-7′-(bis((5-methyl-1,2,4-oxadiazol-3-yl)methyl)amino)-6-chloro-12′-methyl-3,4-dihydro-2H,15′H-spiro[naphthalene-1,22′-[20]oxa[13]thia[1,14]diazatetracyclo[14.7.2.0^3,6.0^19,24]pentacosa [8,16,18,24]tetraen]-15′-one 13′,13′-dioxide]: the pIC50 is 6.14 in assay [1] (setting [3]) and 8.76 in assay [2] (setting [4]).
Regarding `C[C@@]12C/C=C/[C@H](O)[C@@H]3CC[C@H]3CN3C[C@@]4(CCCc5cc(Cl)ccc54)COc4ccc(cc43)C(=O)NS(=O)(=O)[C@H]1CCC2` (single isomer, unassigned) [Example 131], the pIC50 was 5.74 in assay [1] (16 h) and 8.74 in assay [2] (setting [5]).
For `COCCO[C@H]1/C=C/CCN(CCOC)S(=O)(=O)NC(=O)c2ccc3c(c2)N(C[C@@H]2CC[C@H]21)C[C@@]1(CCCc2cc(Cl)ccc21)CO3` [Example 48, (1S,3′R,6′R,7′S,8′E)-6-chloro-7′-(2-methoxyethoxy)-12′-(2-methoxyethyl)-3,4-dihydro-2H,15′H-spiro[naphthalene-1,22′-[20]oxa[13]thia[1,12,14]triazatetracyclo[14.7.2.0^3,6.0^19,24]pentacosa[8,16,18,24]tetraen]-15′-one 13′,13′-dioxide], the pIC50 in assay [1] (setting [3]) is 6.28; in assay [2] (setting [5]) it was 9.25.
Consider `CC[C@@H]1CC/C=C/[C@H](OCC(=O)NCCO)[C@@H]2CC[C@H]2CN2C[C@@]3(CCCc4cc(Cl)ccc43)COc3ccc(cc32)C(=O)NS1(=O)=O` [Example 996, 2-(((1S,3′R,6′R,7′S,8′E,12′R)-6-chloro-12′-ethyl-13′,13′-dioxido-15′-oxo-3,4-dihydro-2H-spiro[naphthalene-1,22′-[20]oxa[13]thia[1,14]diazatetracyclo[14.7.2.0^3,6.0^19,24]pentacosa [8,16,18,24]tetraen]-7′-yl)oxy)-N-(2-hydroxyethyl)acetamide], for which the pIC50 in assay [1] (Homo sapiens, OPM-2, 16 h, 16 h incubation) is 5.09; in assay [2] (setting [5]), 9.31.
Take `C[C@@H]1[C@@H](C)C/C=C/[C@H](OCCNS(C)(=O)=O)[C@@H]2CC[C@H]2CN2C[C@@]3(CCCc4cc(Cl)ccc43)COc3ccc(cc32)C(=O)NS1(=O)=O` [Example 735, N-(2-(((1S,3′R,6′R,7′S,8′E,11′S,12′R)-6-chloro-11′,12′-dimethyl-13′, 13′-dioxido-15′-oxo-3,4-dihydro-2H-spiro[naphthalene-1,22′-[20]oxa[13]thia[1,14]diazatetracyclo[14.7.2.0^3,6.0^19,24]pentacosa[8,16,18,24]tetraen]-7′-yl)oxy)ethyl)Methanesulfonamide]: the pIC50 in assay [1] (setting [3]) is 6.69; in assay [2] (setting [4]), 9.17.
The like results for `COC1C=CCC(OC)C(CC2CCCO2)S(=O)(=O)NC(=O)c2ccc3c(c2)N(CC2CCC21)CC1(CCCc2cc(Cl)ccc21)CO3` (single isomer, unassigned) [Example 641] were, in that order, 6.55 and 9.27.
Turning to `CC(C)OC(=O)C[C@@H]1[C@@H](C)/C=C\C[C@H](O)[C@@H]2CC[C@H]2CN2C[C@@]3(CCCc4cc(Cl)ccc43)COc3ccc(cc32)C(=O)NS1(=O)=O` [Example 569], the pIC50 is 6.12 in assay [1] (setting [3]) and 8.99 in assay [2] (setting [4]).
For the molecule `O=C1NS(=O)(=O)C(c2ccccc2)CC/C=C/[C@H](O)[C@@H]2CC[C@H]2CN2C[C@@]3(CCCc4cc(Cl)ccc43)COc3ccc1cc32` (single isomer, unassigned) [Example 674], the pIC50 is 5.96 in assay [1] (16 h) and 8.09 in assay [2] (setting [4]).

The values are drawn from patent publication US12091425B2 (AMGEN INC., priority 2016, dated 2024).
